Reference: patent US9365574B2, “Soluble guanylate cyclase activators” (Merck Sharp & Dohme Corp., priority 2010, dated 2016)

Target: T1, sGC (Homo sapiens, UniProt Q02108+Q02153)
T1 construct: expressed in transfected cells; host or cells: CHO-K1 (clone #7, CHO-K1/sGC)
T1 sequence (Q02108 1-690): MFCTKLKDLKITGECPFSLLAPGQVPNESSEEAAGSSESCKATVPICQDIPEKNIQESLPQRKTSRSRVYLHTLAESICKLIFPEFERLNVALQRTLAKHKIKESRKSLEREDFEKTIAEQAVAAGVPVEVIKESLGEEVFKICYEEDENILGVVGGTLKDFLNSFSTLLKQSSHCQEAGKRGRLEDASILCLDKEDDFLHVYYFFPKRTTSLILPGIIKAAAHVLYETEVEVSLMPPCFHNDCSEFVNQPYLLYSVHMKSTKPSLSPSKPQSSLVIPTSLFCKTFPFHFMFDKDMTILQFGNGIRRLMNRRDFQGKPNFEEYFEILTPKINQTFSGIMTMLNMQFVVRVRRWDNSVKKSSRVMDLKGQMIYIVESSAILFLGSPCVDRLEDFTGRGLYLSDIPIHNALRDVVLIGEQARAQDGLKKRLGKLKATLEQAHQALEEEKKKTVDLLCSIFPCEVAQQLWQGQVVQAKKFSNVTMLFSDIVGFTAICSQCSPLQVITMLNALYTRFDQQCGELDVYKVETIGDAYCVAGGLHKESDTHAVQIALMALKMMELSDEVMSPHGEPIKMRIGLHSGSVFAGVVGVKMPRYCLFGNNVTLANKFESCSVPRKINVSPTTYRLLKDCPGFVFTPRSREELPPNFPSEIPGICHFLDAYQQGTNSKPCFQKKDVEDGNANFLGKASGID
T1 sequence (Q02153 1-619): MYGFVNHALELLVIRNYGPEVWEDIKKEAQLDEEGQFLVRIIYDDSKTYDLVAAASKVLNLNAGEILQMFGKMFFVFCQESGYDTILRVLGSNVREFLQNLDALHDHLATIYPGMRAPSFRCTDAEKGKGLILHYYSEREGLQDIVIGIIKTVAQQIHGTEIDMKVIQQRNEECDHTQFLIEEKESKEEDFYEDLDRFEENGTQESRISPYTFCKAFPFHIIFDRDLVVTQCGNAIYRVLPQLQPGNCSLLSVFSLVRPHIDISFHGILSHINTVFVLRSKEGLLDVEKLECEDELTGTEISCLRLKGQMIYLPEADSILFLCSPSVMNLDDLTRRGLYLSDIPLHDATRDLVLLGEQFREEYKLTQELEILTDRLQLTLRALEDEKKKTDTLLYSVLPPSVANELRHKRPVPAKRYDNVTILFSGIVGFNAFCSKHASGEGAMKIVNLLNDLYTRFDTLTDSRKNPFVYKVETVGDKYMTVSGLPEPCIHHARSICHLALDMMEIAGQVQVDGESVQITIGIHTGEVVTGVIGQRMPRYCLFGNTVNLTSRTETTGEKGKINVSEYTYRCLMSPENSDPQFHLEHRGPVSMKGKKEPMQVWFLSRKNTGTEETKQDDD
Assay: Cell-based sGC Functional Assay (CASA Assay), cGMP generation in CHO-K1/sGC cells
Details: without ODQ incubation; for EC50: read-out: inflection points (IP)
From the text: Cell-based sGC Functional Assay (CASA Assay)
sGC is a heme-containing enzyme that converts GTP to secondary messenger cGMP. Increases in cGMP levels affect several physiological processes including vasorelaxation through multiple downstream pathways. […] Heme-dependent activators (HDAs) preferentially activate sGC containing a ferrous heme group. To determine the effect of sGC activators on enzyme activity, the CASA assay was developed to monitor the generation of cGMP in a cell line that stably expresses the heterodimeric sGC protein.
A CHO-K1 cell line stably expressing the sGC a up heterodimer was generated using a standard transfection protocol. CHO-K1 cells were transfected with plasmids pIREShyghsGCα1 and pIRESneo-hsGCβ1 simultaneously using FUGENE reagent. Clones that stably express both subunits were selected with hygromycin and neomycin for weeks. Clone #7 was chosen for the assay and was designated CHO-K1/sGC. CHO-K1/sGC cells were maintained in F-K12 medium containing 10% heat-inactivated Fetal Bovine Serum (FBS), 100 μg/mL penicillin/streptomycin, 0.5 mg/mL hygromycin and 0.25 mg/mL G418. On the day of the assay, cells were harvested in EBSS Assay Buffer (EAB) containing 5 mM MgCl2, 10 mM HEPES (4-(2-hydroxyethyppiperazine-1-ethanesulfonic acid) and 0.05% BSA (bovine serum albumin) and cell density was adjusted to 2×10^6/mL with EAB. IBMX (3-isobutyl-1-methylxanthin, 0.5 mM) was added to inhibit degradation of cGMP. Compounds were diluted from DMSO stock solutions and added to the assay at a final DMSO concentration of 1%. Cells were incubated with compounds in the presence and absence of 10 μM of 1H-(1,2,4)oxadiazolo(4,3-a) quinoxalin-1-one (ODQ) for 1 hr at 37° C. At the end of the incubation period, the reaction was terminated and the cells were lysed. The level of intracellular cGMP was determined using an HTRF-based assay kit (CisBio, 62GM2PEC), which detects the displacement of a fluorescence labeled cGMP from its specific antibody. The amount of cGMP was plotted against compound concentration in PRISM software and the IP and maximum fold induction over DMSO control were derived from the plot.

| SMILES | Maximum fold induction over DMSO control | EC50 [nM] |
| --- | --- | --- |
| CC1(c2ccccc2)C(=O)Nc2nc(-c3nc(CCC(F)(F)C(F)(F)F)n4cc(Cl)ccc34)nc(N)c21 (stereo not drawn) [Example 136, 4-amino-2-[6-chloro-3-(3,3,4,4,4-pentafluorobutyl)imidazo[1,5-a]pyridin-1-yl]-5-methyl-5-phenyl-5,7-dihydro-6H-pyrrolo[2,3-d]pyrimidin-6-one] | 52 | 139 |
| CC1(c2ccccc2)C(=O)Nc2nc(-n3nc(CCC(F)(F)C(F)(F)F)c4cc(Cl)ccc43)nc(N)c21 (stereo not drawn) [Example 2, 4-Amino-2-[5-Chloro-3-(3,3,4,4,4-Pentafluorobutyl)-1H-Indazol-1-yl]-5-Methyl-5-Phenyl-5,7-Dihydro-6H-Pyrrolo[2,3-D]Pyrimidin-6-One] | 133 | 114 |
| CC1(c2ccccc2)C(=O)Nc2nc(-n3nc(CCC(F)(F)C(F)(F)F)c4cc(F)ccc43)nc(N)c21 (stereo not drawn) [Example 26, 4-amino-2-[5-fluoro-3-(3,3,4,4,4-pentafluorobutyl)-1H-indazol-1-yl]-5-methyl-5-phenyl-5,7-dihydro-6H-pyrrolo[2,3-d]pyrimidin-6-one] | 156 | 212 |
| CC1(c2ccc(F)cc2)C(=O)Nc2nc(-c3nc(CCC(F)(F)C(F)(F)F)n4cc(Cl)ccc34)nc(N)c21 (stereo not drawn) [Example 105, 4-Amino-2-[6-Chloro-3-(3,3,4,4,4-Pentafluorobutyl)Imidazo[1,5-A]Pyridin-1-yl]-5-(4-Fluorophenyl)-5-Methyl-5,7-Dihydro-6H-Pyrrolo[2,3-D]Pyrimidin-6-One] | 150 | 258 |

Stronger by EC50, values ahead:

| Maximum fold induction over DMSO control | EC50 [nM] | SMILES |
| --- | --- | --- |
| 225 | 50 | CC1(c2ccccc2)C(=O)Nc2nc(-c3nn(CCC(F)(F)C(F)(F)F)c4cc(Cl)ccc34)nc(N)c21 (stereo not drawn) [Example 58, 4-Amino-2-[6-Chloro-1-(3,3,4,4,4-Pentafluorobutyl)-1H-Indazol-3-yl]-5-Methyl-5-Phenyl-5,7-Dihydro-6H-Pyrrolo[2,3-D]Pyrimidin-6-One] |
| 126 | 46 | CC1(c2ccccc2)C(=O)Nc2nc(-c3nn(CCC(F)(F)C(F)(F)F)c4cc(F)ccc34)nc(N)c21 (stereo not drawn) [Example 70, 4-amino-2-[6-fluoro-1-(3,3,4,4,4-pentafluorobutyl)-1H-indazol-3-yl]-5-methyl-5-phenyl-5,7-dihydro-6H-pyrrolo[2,3-d]pyrimidin-6-one] |
